Holding throughout (type): biochemical
In assay [1] the test system is citrated plasma clotting (activated partial thromboplastin time). In words: Coagulation assay: activated partial thromboplastin time (APTT). Particulars: human plasma, Actin Reagent, 37° C. On the procedure: (§1) There are a number of tests which illustrate the activity of the compounds of this invention. Due to the light sensitivity of the test Compounds, experiments were performed under minimally lighted conditions. The tests follow.
(§2) Two coagulation assays, the activated partial thromboplastin time (APTT) and the prothrombin time (PT), were used to evaluate the compounds. An Electra 900C coagulometer with the software package was used. The Actin Reagent (APTT) or Rabbit Brain Thromboplastin (PT) is added to citrated plasma sample in equal volumes (100 μL each) and allowed to incubate for 5 min. at 37° C. […] (100 μL) is added and time to clot noted. Dilution series for compounds undergoing testing were made in human plasma prior to assay.

For assay [2], the system named is citrated plasma clotting (prothrombin time). The experiment in a line: Coagulation assay: prothrombin time (PT). As to conditions: human plasma, Rabbit Brain Thromboplastin, 37° C. On the procedure:
as §1, §2

Another assay concerns the target thrombin (IIa) (Homo sapiens, UniProt P00734). In words: Assay of free thrombin (IIa): initial rate of cleavage of peptide p-nitroanilide S2302. As to conditions: Tris-HCl pH 7.5, 300 μM S2302, 20 nM thrombin, room temperature. As to the method: (§3) There are a number of tests which illustrate the activity of the compounds of this invention. Due to the light sensitivity of the test Compounds, experiments were performed under minimally lighted conditions. The tests follow. ASSAY OF FREE FACTOR XA AND THROMBIN Activity of Factor Xa and thrombin (IIa) were determined as the initial rate of cleavage of peptide p-nitroanilide by the enzymes. […] Initial rate of the first 2 minutes was used for calculation of the enzyme activities.

A further assay addresses Factor Xa (HFXa) (Homo sapiens, UniProt P00742). The experiment in a line: Assay of free Factor Xa: initial rate of cleavage of peptide p-nitroanilide S-2222. As to conditions: free FXa, Tris-HCl pH 7.5, 164 μM S-2222, 3 nM HFXa, room temperature. On the procedure: as §3
For another assay, the target named is T1, human FXa (Homo sapiens, UniProt P00742).
T1 construct: 6 nM of human FXa; purchased Enzyme Research Lab; USA
T1 sequence (P00742 235-488 limits assumed): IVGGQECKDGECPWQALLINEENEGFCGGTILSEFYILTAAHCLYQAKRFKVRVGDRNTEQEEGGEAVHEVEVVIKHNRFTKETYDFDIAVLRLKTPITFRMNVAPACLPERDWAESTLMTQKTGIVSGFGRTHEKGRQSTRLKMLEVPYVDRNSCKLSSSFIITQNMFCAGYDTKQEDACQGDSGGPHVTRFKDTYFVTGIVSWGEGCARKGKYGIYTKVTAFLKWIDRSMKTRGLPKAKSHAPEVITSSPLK
T1 sequence (P00742 41-179 limits assumed): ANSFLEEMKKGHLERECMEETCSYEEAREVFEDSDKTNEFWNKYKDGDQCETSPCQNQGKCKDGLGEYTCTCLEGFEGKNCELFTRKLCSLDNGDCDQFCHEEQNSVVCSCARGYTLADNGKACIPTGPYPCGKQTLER
In words: In vitro plasma matrix effect on anti-FX activity (compounds diluted in 100% rat plasma). As to conditions: compound in 100% rat plasma, 30 min incubation, S2222, pH 7.5, room temperature, read-out: Ki (Xa). As to the method: as §1
IN VITRO PLASMA MATRIX EFFECT ON ANTI-FX ACTIVITY:
Compound stock solutions (10 mM in DMSO) were diluted in 100% rat plasma in a series of 1 to 3 dilutions in the following concentration ranges: (1) from 300 μM to 1.23 μM; (2) from 10 μM to 0.041 μM; (3) from 100 μM to 0.412 μM. After 30 minutes incubation (in dark) at room temperature, 20 μL of diluted compounds (in rat plasma) were added in duplicate to a 96-well flat-bottom microtiter plate (Dynatech Laboratories, USA). Thirty microliter of assay buffer containing 50 mM Tris HCl, pH 7.5, […], and 0.1% polyethylene glycol 6000 was added to each sample well followed by 100 ul of 6 nM of human FXa (in assay buffer) (Enzyme Research Lab. USA). The plate was mixed in a plate shaker for about 30 seconds. The reaction was started by the addition of 50 ul of 656 uM of chromogenic substrate S2222 in assay buffer (Pharmacia Hepar Inc. USA). FXa activity was measured at […] at room temperature for five minutes at 10 seconds interval in a THERMOmax microtiter plate reader (Molecular Devices). An internal standard was assayed in parallel as control. Initial rate as mOD/min was determined using OD readings in the first two minutes of the reaction. IC50 values were determined with a 4-parameter curve fit program provided by the Molecular Devices' software, SOFTmax 2.32. Ki values were then calculated with the following equation: Ki=IC50 /(1+[S]/Km). […]

Where a name gives a salt, the structure may show the parent alone.

Chain of Factor Xa (HFXa) (P00742 235-488 limits assumed): as the sequence (P00742 235-488 limits assumed) above
Chain of Factor Xa (HFXa) (P00742 41-179 limits assumed): as the sequence (P00742 41-179 limits assumed) above

As to `N=C(N)c1ccc(/C=C2\CCCC/C(=C\c3ccc(C(=N)N)cc3)C2=O)cc1` [EX. 1 E,E, E,E-1,3-bis[(4'-(amino(imino)methyl)phenyl)methylene]-2-oxocycloheptane, hydrochloride], the “APTT: dose of compound required to produce a 2 fold increase in clot time” value (shortened to “APTT … to produce a 2 fold increase in clot time”) in assay [1] stood at 17.5 µg/mL. The “PT: dose of compound required to produce a 2 fold increase in clot time” value in assay [2] is greater than 30 µg/mL. Further, the Ki (as a rule, the dissociation constant of the complex between target and ligand, obtained from inhibition or displacement) on thrombin (IIa) is 6200 ± 530 nM; on Factor Xa (HFXa), 16500 ± 800 nM; on human FXa, 27000 ± 2600 nM.

On to `N=C(N)c1ccc(/C=C2/CCCC/C(=C\c3ccc(C(=N)N)cc3)C2=O)cc1` [EX. 2 Z,E, Z,E-1,3-bis[(4'-(amino(imino)methyl)phenyl)methylene]-2-oxocycloheptane, trifluoroacetate], for which the “APTT … to produce a 2 fold increase in clot time” value in assay [1] stood at 1.6 µg/mL. The “PT: dose of compound required to produce a 2 fold increase in clot time” value in assay [2] came out at 3.2 µg/mL. For the same molecule, the Ki amounted to 132 ± 2 nM at thrombin (IIa), 201 ± 57 nM on Factor Xa (HFXa) and 210 ± 34 nM at human FXa.

Take `N=C(N)c1ccc(/C=C2/CCCC/C(=C/c3ccc(C(=N)N)cc3)C2=O)cc1` [EX. 2 Z,Z, Z,Z-1,3-bis[(4'-(amino(imino)methyl)phenyl)methylene]-2-oxocycloheptane, trifluoroacetate]: the “APTT … to produce a 2 fold increase in clot time” value in assay [1] came to 0.3 µg/mL. In addition, the “PT: dose of compound required to produce a 2 fold increase in clot time” value in assay [2] is 0.3 µg/mL. Moreover, the inhibitory constant (Ki) worked out at 525 nM on thrombin (IIa), 1.12 ± 0.28 nM on Factor Xa (HFXa) and 3.45 ± 0.07 nM on human FXa.

For `N=C(N)c1ccc(/C=C2\CCC/C(=C\c3ccc(C(=N)N)cc3)C2=O)cc1` [EX. 3 E,E, E,E-1,3-bis[(4'-(amino(imino)methyl)phenyl)methylene]-2-oxocyclohexane, phosphate], the inhibition constant Ki on thrombin (IIa) came to 2970 ± 480 nM; at Factor Xa (HFXa), 5650 ± 350 nM.

In the case of `N=C(N)c1ccc(/C=C2/CCC/C(=C\c3ccc(C(=N)N)cc3)C2=O)cc1` [EX. 4 Z,E, Z,E-1,3-bis[(4'-(amino(imino)methyl)phenyl)methylene]-2-oxocyclohexane, trifluoroacetate], the inhibition constant Ki at thrombin (IIa) was determined as 115 ± 71 nM; at Factor Xa (HFXa), 422 ± 167 nM.

Turning to `N=C(N)c1ccc(/C=C2/CCC/C(=C/c3ccc(C(=N)N)cc3)C2=O)cc1` [EX. 4 Z,Z, Z,Z-1,3-bis[(4'-(amino(imino)methyl)phenyl)methylene]-2-oxocyclohexane, trifluoroacetate], the Ki worked out at 1340 ± 370 nM at thrombin (IIa) and 28.9 ± 7 nM on Factor Xa (HFXa).

Turning to `N=C(N)c1ccc(/C=C2\CCCC/C(=C\c3ccc(C(N)=O)cc3)C2=O)cc1` [EX. 5 E,E, E,E-1-(4'-(amino(imino)methyl)phenyl)methylene-3-(4'-(aminocarbonyl)phenyl)methylene-2-oxocycloheptane, hydrochloride], the Ki on thrombin (IIa) and at Factor Xa (HFXa) was greater than 5000 nM each time.

For the molecule `N=C(N)c1ccc(C=C2CCCCC(=Cc3ccc(C(N)=O)cc3)C2=O)cc1` [EX. 6 Z,E:E,Z, Z,E/E,Z-1-(4'-(amino(imino)methyl)phenyl)methylene-3-(4'-(aminocarbonyl)phenyl)-methylene-2-oxocycloheptane, trifluoroacetate], the Ki on thrombin (IIa) turned out to be 380 nM; at Factor Xa (HFXa), 1850 ± 10 nM.

For the molecule `N=C(N)c1ccc(/C=C2/CCCC/C(=C/c3ccc(C(N)=O)cc3)C2=O)cc1` [EX. 6 Z,Z, Z,Z-1-(4'-(amino(imino)methyl)phenyl)methylene-3-(4'-(aminocarbonyl)phenyl)-methylene-2-oxocycloheptane, trifluoroacetate], the inhibition constant (Ki) on thrombin (IIa) stood at 107 ± 2 nM; on Factor Xa (HFXa), 52.1 ± 2.5 nM.

Consider `CNC(=N)c1ccc(/C=C2\CCCC/C(=C\c3ccc(C(=N)N)cc3)C2=O)cc1` [EX. 7 E,E, E,E-1-(4'-(amino(imino)methyl)phenyl)methylene-3-(4'-(N'-methylamino-(imino)methyl)phenyl)methylene-2-oxocycloheptane, hydrochloride], for which the figures for the Ki at thrombin (IIa) and on Factor Xa (HFXa) were 12900 nM and 29000 nM, respectively.

Take `CNC(=N)c1ccc(C=C2CCCCC(=Cc3ccc(C(=N)N)cc3)C2=O)cc1` [EX. 8 Z,E:E,Z, Z,E/E,Z-1-(4'-(amino(imino)methyl)phenyl)methylene-3-(4'-(N'-methylamino (imino)methyl)phenyl)methylene-2-oxocycloheptane, trifluoroacetate]: the figures for the inhibition constant (Ki) at thrombin (IIa) and on Factor Xa (HFXa) were 363 ± 19 nM and 504 ± 44 nM, respectively.

For the molecule `C/N=C(\N)c1ccc(/C=C2/CCCC/C(=C/c3ccc(C(=N)N)cc3)C2=O)cc1` [EX. 8 Z,Z, Z,Z-1-(4'-(amino(imino)methyl)phenyl)methylene-3-(4'-(N'-methylamino-(imino)methyl)phenyl)methylene-2-oxocycloheptane, trifluoroacetate], the results for the inhibition constant (Ki) on thrombin (IIa) and on Factor Xa (HFXa) were 1580 ± 290 nM and 12.3 ± 1.8 nM, respectively.

For `CN(C)C(=N)c1ccc(/C=C2/CCCC/C(=C/c3ccc(C(=N)N)cc3)C2=O)cc1` [EX. 10 Z,Z, Z,Z-1-(4'-(amino(imino)methyl)phenyl)methylene-3-(4'-(N',N'-dimethylamino (imino)methyl)phenyl)methylene-2-oxocycloheptane], the Ki at thrombin (IIa) came out at 1390 ± 140 nM; at Factor Xa (HFXa) it was 17.8 ± 2.6 nM.

In the case of `N=C(N)c1ccc(/C=C2/CC(C(=O)O)C/C(=C/c3ccc(C(=N)N)cc3)C2=O)cc1` (stereo not shown) [EX. 11 Z,Z, Z,Z-3,5-bis[(4'-(amino(imino)methyl)phenyl)methylene]-4-oxocyclohexanoic acid, trifluoroacetate], the Ki worked out at 120000 ± 7000 nM at thrombin (IIa) and 29.1 ± 5.8 nM at Factor Xa (HFXa).

Regarding `N=C(N)c1cccc(/C=C2\CCCC/C(=C\c3cccc(C(=N)N)c3)C2=O)c1` [EX. 12 E,E, E,E-1,3-bis[(3'-(amino(imino)methyl)phenyl)methylene]-2-oxocycloheptane, dihydrochloride], the Ki at thrombin (IIa) stood at 2140 ± 150 nM; at Factor Xa (HFXa), 1390 ± 210 nM.

On to `N=C(N)c1cccc(/C=C2/CCCC/C(=C\c3cccc(C(=N)N)c3)C2=O)c1` [EX. 13 Z,E, Z,E-1,3-bis[(3'-(amino(imino)methyl)phenyl)methylene]-2-oxocycloheptane, trifluoroacetate], for which the inhibitory constant (Ki) at thrombin (IIa) was determined as 1000 ± 30 nM; at Factor Xa (HFXa) it was 143 ± 38 nM.

For `N=C(N)c1cccc(/C=C2/CCCC/C(=C/c3cccc(C(=N)N)c3)C2=O)c1` [EX. 13 Z,Z, Z,Z-1,3-bis[(3'-(amino(imino)methyl)phenyl)methylene]-2-oxocycloheptane, trifluoroacetate], the inhibition constant (Ki) is 1360 ± 500 nM on thrombin (IIa) and 5.63 ± 1.97 nM on Factor Xa (HFXa).

With `N=C(N)c1ccc(/C=C2/CCCCCCC/C(=C\c3ccc(C(=N)N)cc3)C2=O)cc1` [EX. 14 Z,E], the values for the Ki on thrombin (IIa) and at Factor Xa (HFXa) were 146 ± 27 nM and 509 ± 26 nM, respectively.

As for `N=C(N)c1ccc(/C=C2/CCCCCCC/C(=C/c3ccc(C(=N)N)cc3)C2=O)cc1` [EX. 14 Z,Z], the results for the Ki at thrombin (IIa) and on Factor Xa (HFXa) were 741 ± 161 nM and 111 ± 2 nM, respectively.

For the molecule `N=C(N)c1ccc(/C=C2/CCCCC/C(=C\c3ccc(C(=N)N)cc3)C2=O)cc1` [EX. 15 Z,E, Z,E-1,3-bis[(4'-(amino(imino)methyl)phenyl)methylene]-2-oxocyclooctane], the values for the Ki on thrombin (IIa) and at Factor Xa (HFXa) were 198 ± 18 nM and 128 ± 25 nM, respectively.

As to `N=C(N)c1ccc(/C=C2/CCCCC/C(=C/c3ccc(C(=N)N)cc3)C2=O)cc1` [EX. 15 Z,Z, Z,Z-1,3-bis[(4'-(amino(imino)methyl)phenyl)methylene]-2-oxocyclooctane], the Ki was 619 ± 193 nM on thrombin (IIa) and 13.7 ± 5.5 nM at Factor Xa (HFXa).

With `N=C(N)c1ccc(/C=C2/CCCCCC/C(=C\c3ccc(C(=N)N)cc3)C2=O)cc1` [EX. 16 Z,E, Z,E-1,3-bis[(4'-(amino(imino)methyl)phenyl)methylene]-2-oxocyclononane], the Ki on thrombin (IIa) was 347 ± 35 nM; on Factor Xa (HFXa), 324 ± 48 nM.

With `N=C(N)c1ccc(/C=C2/CCCCCC/C(=C/c3ccc(C(=N)N)cc3)C2=O)cc1` [EX. 16 Z,Z, Z,Z-1,3-bis[(4'-(amino(imino)methyl)phenyl)methylene]-2-oxocyclononane], the Ki came to 527 ± 52 nM at thrombin (IIa) and 6 ± 2.8 nM on Factor Xa (HFXa).
